Measured values reported in patent US8217141B2, “Crystalline and amorphous forms of peptide” (Neopro Labs, LLC, priority 2007, dated 2012).
Where a SMILES comes first, the peptide text is derived from it.

Tests used:
[1] = Approximate solubility, solvent addition method; format: physicochemical; conditions: ambient temperature
Experimental: A weighed sample of SEQ ID NO:1 (a polypeptide of amino acids F-L-P—S) was treated with aliquots of the test solvent at ambient temperature. Complete dissolution of the test material was determined by visual inspection. Solubility was estimated based on the total solvent used to provide complete dissolution. The actual solubility may be greater than the value calculated because of the use of solvent aliquots that were too large or due to a slow rate of dissolution. […] If complete dissolution was achieved as a result of only one aliquot addition, the solubility is expressed as “greater than”.

[2] = Dynamic vapor sorption/desorption (DVS); format: physicochemical; conditions: for weight gain, adsorption: 5%-95% RH; for weight loss, desorption: 95%-5% RH
Experimental: Moisture sorption/desorption data were collected on a VTI SGA-100 Vapor Sorption Analyzer. Sorption and desorption data were collected over a range of 5% to 95% relative humidity (RH) at 10% RH intervals under a nitrogen purge. Samples were not dried prior to analysis. Equilibrium criteria used for analysis were less than 0.0100% weight change in 5 minutes, with a maximum equilibration time of 3 hours if the weight criterion was not met. Data were not corrected for the initial moisture content of the samples. Sodium chloride and polyvinypyrrolidine were used as calibration standards.

solubility ([1]; 1-Butanol): ≥ 43 mg/mL | solubility ([1]; 2-Butanone): ≥ 20 mg/mL | solubility ([1]; 2-Propanol): ≥ 20 mg/mL | solubility ([1]; Acetone): ≥ 40 mg/mL | solubility ([1]; Acetonitrile (ACN)): ≥ 19 mg/mL | solubility ([1]; Chloroform): ≤ 1.9 mg/mL | solubility ([1]; Dichloromethane (DCM)): ≥ 20 mg/mL | solubility ([1]; Ethanol (EtOH)): ≥ 52 mg/mL | solubility ([1]; Ethyl acetate (EtOAc)): ≥ 20 mg/mL | solubility ([1]; Heptane): ≤ 2 mg/mL | solubility ([1]; Isopropyl ether): ≤ 2.7 mg/mL | solubility ([1]; Methanol (MeOH)): ≥ 50 mg/mL | solubility ([1]; Pentane): ≤ 2 mg/mL | solubility ([1]; Tetrahydrofuran (THF)): ≥ 44 mg/mL | solubility ([1]; Toluene): ≤ 3.6 mg/mL | solubility ([1]; Water, visual inspection): ≥ 60 mg/mL | weight gain, adsorption [2]: 5%-95% RH; 25.0 w % (gain), | weight gain, adsorption ([2]; listed as SEQ ID NO:1): 25.0 w % | weight loss, desorption [2]: 95%-5% RH; 28.2 w % (loss) | weight loss, desorption ([2]; listed as SEQ ID NO:1): 28.2 w % | final weight loss after the desorption step ([2]; at ~5% RH, relative to original weight): 4.4% | initial weight loss ([2]; on equilibration at ~5% RH, as received material): 1.3% | weight gain on the sorption step ([2]; up to ~95% RH, relative to original weight): approximately 23.7%
Structure (SMILES): CC(C)CC(NC(=O)C(N)Cc1ccccc1)C(=O)N1CCCC1C(=O)NC(CO)C(=O)O (centres unmarked) [SEQ ID NO: 1] (H-FLPS-OH; configuration not given here)
